Laboratory results from patent US8658794B2, “8-methyl-1-phenyl-imidazol[1,5-a]pyrazine compounds as Lck inhibitors and uses thereof” (Merck Sharp & Dohme B.V., priority 2010, dated 2014).

biological target: T1, N-terminal His6-tagged recombinant full-length human Lck (Homo sapiens, UniProt P06239); experiment: Lck IMAP assay; format: biochemical; details: ATP 6 μM (KM,ATP), enzyme pre-incubated with compounds for 60 minutes, values given as bins
T1 construct: N-terminal His6-tagged recombinant full-length human Lck; His6 (N); purchased Millipore
T1 sequence (P06239 whole entry): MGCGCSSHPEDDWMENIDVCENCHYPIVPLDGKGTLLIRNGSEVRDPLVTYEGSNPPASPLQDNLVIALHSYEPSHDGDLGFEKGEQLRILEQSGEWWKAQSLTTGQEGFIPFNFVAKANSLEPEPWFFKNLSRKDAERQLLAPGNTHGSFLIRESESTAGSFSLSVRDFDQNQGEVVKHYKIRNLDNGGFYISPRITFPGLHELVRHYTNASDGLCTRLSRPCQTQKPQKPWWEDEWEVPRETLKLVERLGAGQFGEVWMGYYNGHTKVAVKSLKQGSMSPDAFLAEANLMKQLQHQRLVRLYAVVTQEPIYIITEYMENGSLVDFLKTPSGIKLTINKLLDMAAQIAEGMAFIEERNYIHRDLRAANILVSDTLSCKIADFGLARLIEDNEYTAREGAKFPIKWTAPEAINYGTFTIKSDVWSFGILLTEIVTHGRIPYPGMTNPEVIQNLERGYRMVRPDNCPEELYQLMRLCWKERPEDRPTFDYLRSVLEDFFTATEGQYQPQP
Text: Inhibition of kinase activity can be measured using the Immobilized Metal Assay for Phosphochemicals (IMAP) assay. IMAP is a homogeneous fluorescence polarization (FP) assay based on affinity capture of phosphorylated peptide substrates. IMAP uses fluorescein-labeled peptide substrates that, upon phosphorylation by a protein kinase, bind to so-called IMAP nanoparticles, which are derivatized with trivalent metal complexes. Binding causes a change in the rate of the molecular motion of the peptide, and results in an increase in the FP value observed for the fluorescein label attached to the substrate peptide (Gaudet et al. A homogeneous fluorescence polarization assay adaptable for a range of protein serine/threonine and tyrosine kinases. J. Biomol. Screen (2003) 8, 164-175).
Enzyme used was N-terminal His6-tagged recombinant full-length human Lck from Millipore. Phosphorylation substrate was a fluorescein-labeled peptide (5FAM-KVEKIGEGTYGVV—NH2) derived from p34cdc2 from Molecular Devices. Enzymes, substrate and ATP were diluted in Kinase Reaction buffer (10 mM Tris-HCl, 10 mM MgCl2, 0.01% Tween-20, 0.05% NaN3 pH 7.2, 1 mM DTT (dithiotreitol). The final volume at the kinase reaction step of the assay in the 384-well plate was 20 μl. Final amount of enzyme in the reaction was 0.1 U/ml. Enzyme was pre-incubated with compounds diluted in 1% DMSO (dimethylsulfoxide) for 60 minutes at room temperature in the dark. Subsequently, peptide substrate to a final concentration of 100 nM, and ATP to a final concentration of 6 μM were added and the mix was incubated for 120 minutes at room temperature in the dark. IMAP progressive binding buffer (75% 1× buffer A, 25% 1× buffer B with 1:600 Progressive Binding Reagent; Molecular Devices) was added, followed by an incubation step of 60 minutes at room temperature in the dark. Finally, the FP signal was read on an Envision Multilabel reader (Perkin Elmer).
All biochemical assays were run at KM,ATP of the enzyme using non-saturated conditions, meaning that during the incubation time it was assured that the signal increase was linear with time. For all biochemical assays a reference standard was used on each plate.
Ten point serial dilutions using a √10 dilution factor were used for dose response testing of compounds. Starting concentration was 10^-6M for Lck IMAP assays. Dose-response curves were run as two experiments on duplicate plates (N=1; n=2). All data was normalized to percentage effect based on maximum (Max) and minimum (Min) control values. On every 384 assay plate 16 wells were used as minimum wells (wells with ATP, 0% effect) and 16 wells were used as maximum wells (wells without ATP, 100% effect). 16 wells were used for measuring the background signal, obtained from a kinase reaction containing all constituents except the labeled peptide substrate. Percentage effect was plotted against log dilution concentration of compound to obtain sigmoid dose response curves. pIC50 values were calculated using ActivityBase.

Q: `COc1cc(-c2nc(N3CCN(C4CCOCC4)CC3)n3ccnc(C)c23)ccc1NC(=O)c1cc2c(OC)cccc2n1C` [Example 34, 4-Methoxy-N-(2-methoxy-4-(8-methyl-3-(4-(tetrahydro-2H-pyran-4-yl)piperazin-1-yl)imidazo[1,5-a]pyrazin-1-yl)phenyl)-1-methyl-1H-indole-2-carboxamide] was tested. Which IC50 did it give?
A: ≤ 10 nM

Q: With `COc1cc(-c2nc([C@@H]3CCN(C4CCOCC4)C3)n3ccnc(C)c23)ccc1NC(=O)c1cc2c(OC)cccc2n1C` [Example 35, (R)-4-methoxy-N-(2-methoxy-4-(8-methyl-3-(1-(tetrahydro-2H-pyran-4-yl)pyrrolidin-3-yl)imidazo[1,5-a]pyrazin-1-yl)phenyl)-1-methyl-1H-indole-2-carboxamide] as the molecule, how does the IC50 read?
A: 10 to 100 nM

Q: With `COc1cc(-c2nc([C@H]3CCN(C4CCOCC4)C3)n3ccnc(C)c23)ccc1NC(=O)c1cc2c(OC)cccc2n1C` [Example 36, (S)-4-Methoxy-N-(2-methoxy-4-(8-methyl-3-(1-(tetrahydro-2H-pyran-4-yl)pyrrolidin-3-yl)imidazo[1,5-a]pyrazin-1-yl)phenyl)-1-methyl-1H-indole-2-carboxamide] as the molecule, how does the IC50 read?
A: 10 to 100 nM

Q: How did the IC50 turn out when `COc1cc(-c2nc(N3CCn4c(nnc4C(F)(F)F)C3)n3ccnc(C)c23)ccc1NC(=O)c1cc2c(OC)cccc2n1C` [Example 37, 4-Methoxy-N-(2-methoxy-4-(8-methyl-3-(3-(trifluoromethyl)-5,6-dihydro-[1,2,4]triazolo[4,3-a]pyrazin-7(8H)-yl)imidazo[1,5-a]pyrazin-1-yl)phenyl)-1-methyl-1H-indole-2-carboxamide] was run?
A: 10 to 100 nM

Q: Which IC50 does the source give for `COc1cc(-c2nc(C3CCN(C)C(=O)C3)n3ccnc(C)c23)ccc1NC(=O)c1cc2c(OC)cccc2n1C` (stereo not shown) [Example 38, 4-Methoxy-N-(2-methoxy-4-(8-methyl-3-(1-methyl-2-oxopiperidin-4-yl)imidazo[1,5-a]pyrazin-1-yl)phenyl)-1-methyl-1H-indole-2-carboxamide] here?
A: ≤ 10 nM

Q: For `COc1cc(-c2nc([C@H]3CC[C@H](N)CC3)n3ccnc(C)c23)ccc1NC(=O)c1cc2c(OC)cccc2n1C` [Example 39, N-(4-(3-((trans)-4-aminocyclohexyl)-8-methylimidazo[1,5-a]pyrazin-1-yl)-2-methoxyphenyl)-4-methoxy-1-methyl-1H-indole-2-carboxamide], which IC50 is on record?
A: ≤ 10 nM

Q: `COc1cc(-c2nc([C@H]3CC[C@H](NCC(F)F)CC3)n3ccnc(C)c23)ccc1NC(=O)c1cc2c(OC)cccc2n1C` [Example 40, N-(4-(3-((trans)-4-(2,2-Difluoroethylamino)cyclohexyl)-8-methylimidazo[1,5-a]pyrazin-1-yl)-2-methoxyphenyl)-4-methoxy-1-methyl-1H-indole-2-carboxamide] was tested. Which IC50 did it give?
A: ≤ 10 nM

Q: How did the IC50 turn out when `COc1cc(-c2nc([C@H]3CC[C@H](N4CC(F)(F)C4)CC3)n3ccnc(C)c23)ccc1N(C)C(=O)OC(C)C` [Example 41, Isopropyl 4-(3-((trans)-4-(3,3-difluoroazetidin-1-yl)cyclohexyl)-8-methylimidazo[1,5-a]pyrazin-1-yl)-2-methoxyphenyl(methyl)carbamate] was run?
A: 100 to 1000 nM

Q: How did the IC50 turn out when `COc1ccc2[nH]c(C(=O)Nc3ccc(-c4nc(C5CCOCC5)n5ccnc(C)c45)cc3OC)cc2n1` [Example 42, 5-methoxy-N-(2-methoxy-4-(8-methyl-3-(tetrahydro-2H-pyran-4-yl)imidazo[1,5-a]pyrazin-1-yl)phenyl)-1H-pyrrolo[3,2-b]pyridine-2-carboxamide] was run?
A: 10 to 100 nM

Q: For `COc1cc(-c2nc(C3CCN(C)CC3)n3ccnc(C)c23)ccc1NC(=O)c1cc2ccccc2n1C` [Example 43, N-(2-methoxy-4-(8-methyl-3-(1-methylpiperidin-4-yl)imidazo[1,5-a]pyrazin-1-yl)phenyl)-1-methyl-1H-indole-2-carboxamide], which IC50 is on record?
A: ≤ 10 nM

Q: For `COc1cc(-c2nc(C3CCOCC3)n3ccnc(C)c23)ccc1NC(=O)O[C@@H](C)CCO` [Example 44, (S)-4-hydroxybutan-2-yl 2-methoxy-4-(8-methyl-3-(tetrahydro-2H-pyran-4-yl)imidazo[1,5-a]pyrazin-1-yl)phenylcarbamate], which IC50 is on record?
A: 10 to 100 nM

Q: Which IC50 does the source give for `COc1cc(-c2nc(C3CCN(C)CC3)n3ccnc(C)c23)ccc1NC(=O)c1cc2c(F)cccc2n1C` [Example 45, 4-fluoro-N-(2-methoxy-4-(8-methyl-3-(1-methylpiperidin-4-yl)imidazo[1,5-a]pyrazin-1-yl)phenyl)-1-methyl-1H-indole-2-carboxamide] here?
A: 10 to 100 nM

Q: With `COc1cc(-c2nc(C3CCOCC3)n3ccnc(C)c23)c(F)cc1NC(=O)c1cc2c(OC)cccc2n1C` [Example 46, N-(5-fluoro-2-methoxy-4-(8-methyl-3-(tetrahydro-2H-pyran-4-yl)imidazo[1,5-a]pyrazin-1-yl)phenyl)-4-methoxy-1-methyl-1H-indole-2-carboxamide] as the molecule, how does the IC50 read?
A: ≤ 10 nM

Q: Which IC50 does the source give for `COc1cc(-c2nc(C3CCOCC3)n3ccnc(C)c23)c(F)cc1NC(=O)OC(C)CCCO` (stereo not shown) [Example 47, 5-Hydroxypentan-2-yl 5-fluoro-2-methoxy-4-(8-methyl-3-(tetrahydro-2h-pyran-4-yl)imidazo[1,5-a]pyrazin-1-yl)phenylcarbamate] here?
A: 100 to 1000 nM

Q: For `CC[C@H](C)OC(=O)Nc1ccc(-c2nc([C@H]3CC[C@H](N4CCN(C)CC4)CC3)n3ccnc(C)c23)cc1OC` [Example 48, (S)-sec-Butyl 2-methoxy-4-(8-methyl-3-((trans)-4-(4-methylpiperazin-1-yl)cyclohexyl)imidazo[1,5-a]pyrazin-1-yl)phenylcarbamate], which IC50 is on record?
A: ≤ 10 nM

Q: How did the IC50 turn out when `COc1cc(-c2nc(C3CCN(C4CCN(C(C)=O)CC4)CC3)n3ccnc(C)c23)ccc1NC(=O)c1cc2c(OC)cccc2n1C` [Example 49, N-(4-(3-(1′-acetyl-1,4′-bipiperidin-4-yl)-8-methylimidazo[1,5-a]pyrazin-1-yl)-2-methoxyphenyl)-4-methoxy-1-methyl-1H-indole-2-carboxamide] was run?
A: ≤ 10 nM

Q: For `CCC[C@H](C)OC(=O)Nc1ccc(-c2nc([C@H]3CCN(C(=O)COC)C3)n3ccnc(C)c23)cc1OC` [Example 50, (S)-pentan-2-yl 2-methoxy-4-(3-((S)-1-(2-methoxyacetyl)pyrrolidin-3-yl)-8-methylimidazo[1,5-a]pyrazin-1-yl)phenylcarbamate], which IC50 is on record?
A: ≤ 10 nM

Q: `COc1cc(-c2nc([C@H]3CC[C@H](OC(=O)NC4CCCC4)CC3)n3ccnc(C)c23)ccc1NC(=O)c1cc2c(OC)cccc2n1C` [Example 51, (trans)-4-(1-(3-Methoxy-4-(4-methoxy-1-methyl-1H-indole-2-carboxamido)phenyl)-8-methylimidazo[1,5-a]pyrazin-3-yl)cyclohexyl cyclopentylcarbamate] was tested. Which IC50 did it give?
A: 10 to 100 nM

Q: With `COc1cc(-c2nc([C@@H]3CCN(CC(=O)N(C)C)C3)n3ccnc(C)c23)ccc1NC(=O)c1cc2c(OC)cccc2n1C` [Example 52, (R)—N-(4-(3-(1-(2-(dimethylamino)-2-oxoethyl)pyrrolidin-3-yl)-8-methylimidazo[1,5-a]pyrazin-1-yl)-2-methoxyphenyl)-4-methoxy-1-methyl-1H-indole-2-carboxamide] as the molecule, how does the IC50 read?
A: 10 to 100 nM

Q: `COc1cc(-c2nc([C@@H]3CCN(C(=O)CO)C3)n3ccnc(C)c23)ccc1NC(=O)c1cc2c(OC)cccc2n1C` [Example 53, (R)—N-(4-(3-(1-(2-hydroxyacetyl)pyrrolidin-3-yl)-8-methylimidazo[1,5-a]pyrazin-1-yl)-2-methoxyphenyl)-4-methoxy-1-methyl-1H-indole-2-carboxamide] was tested. Which IC50 did it give?
A: ≤ 10 nM

Q: For `COc1cc(-c2nc([C@H]3CC[C@H](N4CCNCC4)CC3)n3ccnc(C)c23)ccc1NC(=O)c1cc2c(OC)cccc2n1C` [Example 54, 4-Methoxy-N-(2-methoxy-4-(8-methyl-3-((trans)-4-(piperazin-1-yl)cyclohexyl)imidazo[1,5-a]pyrazin-1-yl)phenyl)-1-methyl-1H-indole-2-carboxamide], which IC50 is on record?
A: ≤ 10 nM

Q: How did the IC50 turn out when `COc1cc(-c2nc([C@H]3CC[C@H](N4CCN(C)CC4)CC3)n3ccnc(C)c23)ccc1NC(=O)c1cc(Cl)cn1C` [Example 55, 4-Chloro-N-(2-methoxy-4-(8-methyl-3-((trans)-4-(4-methylpiperazin-1-yl)cyclohexyl)imidazo[1,5-a]pyrazin-1-yl)phenyl)-1-methyl-1H-pyrrole-2-carboxamide] was run?
A: ≤ 10 nM
